According to publication PMC3231940, “Disposition, metabolism and mass balance of [^14C]apremilast following oral administration” (Xenobiotica; the Fate of Foreign Compounds in Biological …, 2011):
Several values for one entry are separate records, joined by “and”; a condition that tells them apart may be missing. Equal entries are not always repeated.

What was measured:
[1] = Mass balance: excretion of radioactivity in urine and faeces after a single oral [14C]apremilast dose; type: in vivo, human
Experimental: This was an open-label, inpatient, single-dose study conducted with six non-smoking healthy male volunteers, aged between 19 and 55 years, with body mass index between 19 and 29kg/m^2. Before initiation of the study, the protocol and consent form were reviewed and approved by the institutional review board. All study participants gave written informed consent before the screening process was initiated. This study was conducted in full accordance with the Declaration of Helsinki and Good Clinical (GCP) as required by and described in 21 Code of Federal Regulations.
(§1) Each subject was administered a single oral suspension of 20 mg (100 μCi) of [^14C] apremilast in distilled water (240mL total volume). Subjects were fasted for 8 h prior to and 4 h following dose administration. The residual radioactivity in the dosing vials was determined and accounted for approximately 0.3% of the total radioactivity. Dose administration, sample collection, sample processing and determination of total radioactivity were conducted at MDS Pharma Services (Lincoln, NE). Determination of apremilast in plasma, metabolite profiling and metabolite characterization were performed at XenoBiotic Laboratories, Inc. (Plainsboro, NJ).
(§2) Urine was collected pre-dose, 0-4, 4-8, 8-12, 12-24 and every 24 h thereafter up to 216h (9 days) following dose administration and was stabilized with one volume of pH 1.5 Sorensen's citrate buffer (25-mM sodium citrate buffer adjusted to pH 1.5). […] Blood (two 5-mL samples for plasma radioactivity counting, a 3-mL sample for whole blood radioactivity counting, a 2-mL sample for apremilast analysis and a 10-mL sample for metabolite profiling) was collected into heparinized tubes at pre-dose, 0.5, 1, 1.5, 2, 2.5, 3, 4, 6, 8, 12, 16, 24, 36, 48, 72, 96, 120, 144 and 168 h following dose administration. Blood samples collected for radioactivity counting were stored at or below -20°C until analysed. […] All urine, faecal homogenates and plasma samples were stored at or below -20°C until analysed.
(§3) All radioactivity determinations were performed using a Tri-Carb model 1600TR liquid scintillation counter (PerkinElmer, Wellesley, MA). For plasma and urine analysis, duplicate samples of a known volume were mixed with Ultima Gold XR scintillation cocktail and directly analysed by liquid scintillation counting. […] Using these criteria, the lower limit of quantification in plasma, blood, urine and faeces were 2.07 ng [^14C]apremilast equivalent/mL (ngEq/mL), 2.61 ngEq/g, 1.89 ngEq/mL and 2.52 ngEq/g, respectively.
The amount of total radioactivity (ngEq) in urine and faeces was determined by multiplying the volume or weight of the samples by the radioactivity concentration. […] For data values below the limit of quantification, a value of zero was assigned for calculations of means.

[2] = cited from earlier work
[3] = system: CYP3A4; parameters: method as in Wu et al. 2006; conditions: co-administration with ketoconazole, healthy subjects; ref Wu et al. 2006; cited from earlier work
[4] = system: PDE4 enzyme isolated from U937 human monocytic cells; assay: PDE4 inhibition, cAMP hydrolysis assay; type: biochemical; conditions: PDE4 from U937 cells, cAMP hydrolysis
Experimental: PDE4 enzyme was isolated from U937 human monocytic cells and used for testing inhibition in a cAMP hydrolysis assay as previously described ([Schafer et al. 2010]). For the TNF-α production assay, human peripheral blood mono-nuclear cells (PBMC) were isolated from buffy coat of normal donor blood units (Blood Center of New Jersey, East Orange, NJ) by density centrifugation over Ficoll Hypaque (Pharmacia, Piscataway, NJ). Cells were cultured in RPMI 1640 (Life Technologies, Grand Island, NY) supplemented with 5% AB^+ human serum (Gemini Bio-products, Woodland, CA), 2-mM L-glutamine, 100-U/mL penicillin and 100-μg/mL streptomycin (Life Technologies). PBMC (2×10^5 cells) were plated in 96-well flat-bottom Costar tissue culture plates (Corning, NY) in duplicate. Cells were stimulated with lipopolysaccharides (LPS) (from Salmonella abortus equi; Sigma cat.no. L-1887, St.Louis, MO) at a final concentration of 1 ng/mL in the absence or presence of compounds. The compounds were dissolved in DMSO (Sigma) and subsequent dilutions were done in culture medium immediately before use. The compounds were added to cells 1 h before LPS stimulation. The cells were incubated for 16-18 h at 37°C in 5% CO2, and super-natants were then collected, diluted with culture medium and assayed for TNF-α levels by enzyme-linked immunosorbent assay (ThermoFisher, Rockford, IL). Fifty percent inhibitory concentrations (IC50) for the PDE4 enzymatic and TNF-α assay were calculated by non-linear regression analysis using Prism 5.1 (GraphPad Software). Regression curves were sigmoidal dose response curves with maximum and minimum constrained to 100% and 0%, respectively.

[5] = Total radioactivity pharmacokinetics in plasma and whole blood; type: in vivo, human; conditions: single oral 20-mg dose
Experimental: as §1, §2
as §3, with “respectively. […]” for “respectively.”

[6] = patients, 20 mg daily for 29 days, capsules, ref Gottlieb et al. 2008

Compound: CCOc1cc([C@@H](CS(C)(=O)=O)N2C(=O)c3cccc(NC(C)=O)c3C2=O)ccc1OC [Apremilast, (+)-N-[2-[(lS)-1-(3-ethoxy-4-methoxyphenyl)-2-(methylsulfonyl)ethyl]-1,3-dioxo-2,3-dihydro-lH-isoindol-4-yl]acetamide]
- Amount of drug absorbed ([1]; based on urinary radioactivity): at least 58%
- Faecal excretion of radioactivity, mean (percentage of dose) ([1]; collection over 216 h, listed as [^14C]apremilast): 39% and 39.2%
- Amount of drug absorbed ([1]; if faecal metabolites are included in the calculation): > 80%
- Radioactivity recovered within the first 4 days (96 h) ([1]; urine plus faeces, 96 h after dose, listed as [^14C]apremilast): > 90% and > 92%
- half-life ([2]; patients with severe plaque-type psoriasis, multiple daily doses, ref Gottelieb et al. 2008): 8.2 h
- AUC0-24 [2, 6]: 1799 ng·h/mL
- Cmax [2, 6]: 207 ng/mL
- Increase in apremilast AUC [3]: 36%
- Increase in mean apremilast Cmax [3]: 5%
- IC50 [4]: 74 nM
- Share of AUC0-∞ for radioactivity in plasma between 0 and 96 h [5]: approximately 90%
- Share of AUC0-∞ for radioactivity in plasma from AUC96-∞ [5]: 10%
- Plasma total radioactivity Tmax ([5]; median (min-max), listed as [^14C]apremilast): < 2 h
